Patent publication US9682928B2 (NeuroPro Therapeutics, Inc., priority 2009, dated 2017)
Several values for one entry are separate records, joined by “and”; a condition that tells them apart may be missing. Equal entries are not always repeated.

Key:
[1] = Brain levels in rat following IP administration; format: in vivo; details: NTP-2006 100 mg/kg IP, PBx pretreated
Na+K+Cl− co-transporter = target: T1, Na+K+Cl− co-transporter (Rattus norvegicus, UniProt E9PTX9); test: Na+K+Cl− cotransporter assay, 86Rb uptake in A7r5 cells; format: cell-based; details: 10 minutes at 37° C.
T1 construct: endogenous in cells; host or cells: A7r5 cells
T1 sequence (E9PTX9 1-1203): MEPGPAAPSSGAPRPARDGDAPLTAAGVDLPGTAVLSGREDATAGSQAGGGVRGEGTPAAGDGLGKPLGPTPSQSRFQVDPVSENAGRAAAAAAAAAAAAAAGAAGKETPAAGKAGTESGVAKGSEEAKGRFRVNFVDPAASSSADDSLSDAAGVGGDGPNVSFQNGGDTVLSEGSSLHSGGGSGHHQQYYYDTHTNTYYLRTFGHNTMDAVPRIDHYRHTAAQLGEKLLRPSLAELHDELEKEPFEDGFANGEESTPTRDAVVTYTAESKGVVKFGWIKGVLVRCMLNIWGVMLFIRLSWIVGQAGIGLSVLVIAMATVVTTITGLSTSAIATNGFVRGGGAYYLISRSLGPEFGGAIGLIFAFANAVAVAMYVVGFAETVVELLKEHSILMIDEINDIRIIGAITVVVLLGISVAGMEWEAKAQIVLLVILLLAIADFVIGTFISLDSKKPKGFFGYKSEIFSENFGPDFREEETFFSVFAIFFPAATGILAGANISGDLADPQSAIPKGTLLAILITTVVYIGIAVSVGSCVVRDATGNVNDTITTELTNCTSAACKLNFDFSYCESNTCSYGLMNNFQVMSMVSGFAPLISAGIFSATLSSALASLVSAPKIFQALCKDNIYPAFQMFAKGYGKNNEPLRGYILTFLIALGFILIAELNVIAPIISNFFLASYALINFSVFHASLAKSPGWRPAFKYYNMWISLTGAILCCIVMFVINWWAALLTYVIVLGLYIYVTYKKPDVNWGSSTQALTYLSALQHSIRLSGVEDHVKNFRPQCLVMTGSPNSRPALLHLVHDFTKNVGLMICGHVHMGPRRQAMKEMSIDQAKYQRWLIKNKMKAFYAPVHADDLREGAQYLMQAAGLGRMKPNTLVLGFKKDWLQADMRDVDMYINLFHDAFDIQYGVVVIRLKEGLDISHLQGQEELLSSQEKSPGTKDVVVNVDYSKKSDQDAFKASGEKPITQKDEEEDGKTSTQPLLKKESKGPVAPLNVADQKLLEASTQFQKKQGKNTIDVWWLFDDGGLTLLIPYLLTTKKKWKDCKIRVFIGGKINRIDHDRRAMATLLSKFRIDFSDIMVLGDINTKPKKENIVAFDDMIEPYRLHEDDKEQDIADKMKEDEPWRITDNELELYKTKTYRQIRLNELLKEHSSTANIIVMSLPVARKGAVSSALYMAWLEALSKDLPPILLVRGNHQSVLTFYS
Experimental: Na^+K^+Cl^− co-transporter activity was measured in vitro in A7r5 cells by measuring their uptake of ^86Rb (0.2 μCi) in 10 minutes at 37° C. as detected by scintillation counting. See Chassande, et al. (1988) “The Na^+/K^+/Cl^− Cotransport in C6 glioma cells. Properties and role in volume regulation.” Eur. J. Biochem. 171: 425433.

[2] = Blood levels in rat following IP administration; format: in vivo
Male Rj: NMRI mice = test: Formalin paw test (late phase) in the mouse; format: in vivo
Experimental: The method described herein detects analgesic/anti-inflammatory activity, generally used to test compounds for pain relief, in particular diabetic neuropathy or nociceptive neuropathy. See Wheeler-Aceto, et al. (1991) Psychopharmacology 104: 35-44.
Mice were given an intraplantar injection of 5% formalin (25 μl) into the posterior left paw. This treatment induces paw licking in control animals. Mice were briefly observed at 1 minute intervals between 15 and 50 minutes after the injection of formalin and the number of occasions that the mice were observed licking the injected paw was recorded. There were 10 mice per group and the test was performed “blind.”
The experiment included 11 groups. Data was analyzed by comparing treated groups with vehicle control using unpaired Mann-Whitney U tests.
Gabapentin (100 mg/kg i.p.) administered under the same experimental conditions, was used as reference substance. The experiment included several groups. Data was analyzed by comparing treated groups with vehicle control using unpaired Mann-Whitney U tests.

adult mice (C57/B16) = test: Mesial temporal lobe epilepsy model (mice), hippocampal discharges; format: in vivo, mouse; details: 50 mg/kg for NTP-2014 and NTP-2026; 150 mg/kg for NTP-2024, NTP-2006, NTP-1007, NTP-1003
Experimental: Antiepileptic protocol: Up to eight adult mice (C57/B16) are injected with kainate (1 nmol in 50 nl) and are implanted with a bipolar electrode in the dorsal hippocampus using stereotaxic techniques under general anesthesia. […] Drug conditions are counter-balanced, the animals being used as their own controls. Digital EEG recordings are performed in freely moving animals for 20 min pre-injection and 80 min post-injection. The effects of the injected compound are compared versus vehicle injections and reference period (pre-dose). Upon completion of the experiment, standard histological analysis are performed to verify electrode location, cell losses in CA1, CA3 and hilus, as well as dentate gyrus dispersion. Only animals with all characteristics of MTLE are used in data analysis. […] The results below are normalized to the pre-dose condition for each of the treatment group including DMSO and saline vehicle controls. Doses of test article compounds were 50 mg/kg for NTP-2014 and NTP-2026 and 150 mg/kg for NTP-2024, NTP-2006, NTP-1007, and NTP-1003. Therefore the bumetanide, furosemide, piretanide, azosemide, and torsemide esters and amide analogs described herein may be used in therapeutic methods to treat seizures.

[3] = target: T2, α1β3γ2 GABAA receptor isoform (Homo sapiens, UniProt P14867+P18507+P28472); test: Whole-cell patch clamp, transfected HEK-293T cells; format: cell-based, rat or human; details: FIG. 36
T2 construct: expressed in transfected cells; host or cells: HEK-293T, transient transfection
Experimental: The addition of GABA to […] activates the recombinant expressed GABAA receptors, creating an ion movement through the ion channel in the GABAA receptor. The electrical current generated by the movement of chloride ions into the cells can be quantified.
HEK-293T cells were transiently transfected with rat or human GABAA receptor subunits. Whole-cell patch clamp recording was performed at −50 mV unless otherwise indicated. Test compounds was diluted from a freshly made stock in DMSO, GABA was prepared from a frozen stock. For each experiment GABA or GABA+a test compound was applied for 5 seconds, and the electrical current generated by the movement of chloride ions into the cells was measured and recorded as a trace of current versus time.
Compounds described herein (e.g., NTP-2014) were tested at high and low GABA concentrations against multiple GABAA receptor isoforms (e.g., α1β3γ2, α2β3 γ2, α3β3γ2, α3β3γ2, α4β3γ2, α5β3γ2, α6β3γ2). […] NTP-2014 inhibits the currents in the parasynaptic α4 GABAA receptor isoform in GABAergic interneurons. […]

T2 sequence (P14867 28-456): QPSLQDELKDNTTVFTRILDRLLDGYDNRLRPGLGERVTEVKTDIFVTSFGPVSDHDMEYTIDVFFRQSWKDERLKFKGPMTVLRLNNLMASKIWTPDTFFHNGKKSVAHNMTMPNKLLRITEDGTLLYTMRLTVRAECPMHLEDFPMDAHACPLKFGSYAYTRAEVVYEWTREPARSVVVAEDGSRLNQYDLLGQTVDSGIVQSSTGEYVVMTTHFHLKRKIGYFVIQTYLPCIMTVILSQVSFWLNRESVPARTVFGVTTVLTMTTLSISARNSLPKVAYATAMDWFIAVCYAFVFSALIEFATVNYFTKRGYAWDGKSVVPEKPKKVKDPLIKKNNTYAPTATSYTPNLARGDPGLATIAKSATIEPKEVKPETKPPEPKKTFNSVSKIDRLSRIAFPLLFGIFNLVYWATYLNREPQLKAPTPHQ
T2 sequence (P28472 26-473): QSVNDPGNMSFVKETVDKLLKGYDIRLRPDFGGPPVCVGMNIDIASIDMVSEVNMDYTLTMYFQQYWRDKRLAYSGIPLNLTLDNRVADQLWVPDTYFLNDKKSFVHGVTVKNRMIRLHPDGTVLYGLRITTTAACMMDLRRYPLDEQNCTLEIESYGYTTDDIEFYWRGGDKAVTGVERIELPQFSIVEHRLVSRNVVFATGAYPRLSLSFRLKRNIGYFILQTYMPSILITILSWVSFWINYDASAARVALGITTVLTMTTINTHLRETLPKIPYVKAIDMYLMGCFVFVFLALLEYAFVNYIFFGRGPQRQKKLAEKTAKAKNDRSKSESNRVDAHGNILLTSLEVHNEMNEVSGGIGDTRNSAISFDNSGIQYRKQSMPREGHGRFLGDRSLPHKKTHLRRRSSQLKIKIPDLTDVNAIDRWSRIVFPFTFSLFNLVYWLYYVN
T2 sequence (P18507 40-475): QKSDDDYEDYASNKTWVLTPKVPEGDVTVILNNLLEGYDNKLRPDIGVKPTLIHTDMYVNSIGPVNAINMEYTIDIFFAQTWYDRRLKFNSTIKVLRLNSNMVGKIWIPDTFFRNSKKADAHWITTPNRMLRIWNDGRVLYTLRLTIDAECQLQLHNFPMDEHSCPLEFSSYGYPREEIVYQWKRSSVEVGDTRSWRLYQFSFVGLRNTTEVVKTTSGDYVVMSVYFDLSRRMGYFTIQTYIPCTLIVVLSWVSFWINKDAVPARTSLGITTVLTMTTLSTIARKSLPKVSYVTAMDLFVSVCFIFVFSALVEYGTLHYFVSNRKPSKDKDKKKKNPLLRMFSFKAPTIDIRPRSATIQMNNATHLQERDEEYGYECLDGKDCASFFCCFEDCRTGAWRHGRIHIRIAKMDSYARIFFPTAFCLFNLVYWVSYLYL

CCCCNc1cc(C(=O)OCC(=O)N(CC)CC)cc(S(N)(=O)=O)c1Oc1ccccc1 [NTP-2006, N,N-Diethylaminocarbonylmethyl 3-Aminosulfonyl-5-butylamino-4-phenoxybenzoate]
Concentration of NTP-2006 in rat brain ([1]; 15 m): 5.259 ng/mL and 2.937 ng/mL
Concentration of NTP-2006 in rat brain ([1]; 6 h): 1.523 ng/mL and 1.572 ng/mL
concentration at 15 min ([1]; rat, brain, intraperitoneal, 100 mg/kg, 15 m): 2.95 ng/mL
concentration at 6 h ([1]; rat, brain, intraperitoneal, 100 mg/kg, 6 h): 1.88 ng/mL
inhibition at 10 µM (Na+K+Cl− co-transporter; read-out: % Inhibition of Control Values): 50%
remaining activity at 10 µM (Na+K+Cl− co-transporter; read-out: % of Control Value): 49.6%
Concentration of NTP-2006 in rat blood ([2]; NTP-2006 100 mg/kg IP, PBx pretreated, 15 m): 2.008 ng/mL and 1.728 ng/mL
Concentration of NTP-2006 in rat blood ([2]; NTP-2006 100 mg/kg IP, PBx pretreated, 1 h): BLQ (Below Limit of Quantitation (<1 ng/ml))
Concentration of NTP-2006 in rat blood ([2]; NTP-2006 100 mg/kg IP, PBx pretreated, 2 h): BLQ (Below Limit of Quantitation (<1 ng/ml))
Concentration of NTP-2006 in rat blood ([2]; NTP-2006 100 mg/kg IP, PBx pretreated, 4 h): BLQ (Below Limit of Quantitation (<1 ng/ml))
Concentration of NTP-2006 in rat blood ([2]; NTP-2006 100 mg/kg IP, PBx pretreated, 6 h): BLQ (Below Limit of Quantitation (<1 ng/ml))
Degradation to bumetanide in the blood ([2]; i.p., rats): degrades into bumetanide
concentration at 15 min ([2]; rat, whole blood, intraperitoneal, 100 mg/kg, NTP-2006 100 mg/kg IP, PBx pretreated, 15 m): 3.32 ng/mL
concentration at 30 min ([2]; rat, whole blood, intraperitoneal, 100 mg/kg, NTP-2006 100 mg/kg IP, PBx pretreated, 30 m): 3.35 ng/mL
Licking Score % Pain Decrease (Male Rj: NMRI mice; 50 μmol/kg i.p.): 40.0%
Licking Score % Pain Decrease (Male Rj: NMRI mice; 250 μmol/kg i.p.): 61%
Licking Score % Pain Decrease (Male Rj: NMRI mice; 500 μmol/kg i.p.): 60%
Anti-inflammatory and analgesic effects in formalin paw test (FIG. 16) (Male Rj: NMRI mice; 50, 250, 500 μmole/kg): show anti-inflammatory and analgesic effects
Licking Score (15 to 50 minutes post-formalin injection) % Change from Control (Male Rj: NMRI mice; i.p. 30 minutes before the test, 50 μmol/kg (NTP-2006 23.9, NTP-2024 21.7, NTP-1007 19.3, NTP-2014 21, NTP-2026 23.1 mg/kg)): −40%
Licking Score (15 to 50 minutes post-formalin injection) % Change from Control (Male Rj: NMRI mice; i.p., 250 μmol/kg (NTP-2006 119, NTP-2024 108, NTP-1007 96.5, NTP-2014 105, NTP-2026 116 mg/kg)): −61%
Licking Score (15 to 50 minutes post-formalin injection) % Change from Control (Male Rj: NMRI mice; i.p., 500 μmol/kg (NTP-2006 239, NTP-2024 217, NTP-1007 193, NTP-2014 210, NTP-2026 231 mg/kg)): −60%
Cumulative duration of hippocampal discharges (adult mice (C57/B16)): decreased
Number of hippocampal discharges (adult mice (C57/B16)): decreased

CN1C(=O)CC(=O)N(c2ccccc2)c2cc(Cl)ccc21 [clobazam]
Effect on inhibitory currents in α1 subunit containing GABAA receptors [3]: increase both the amplitude and time course of inhibitory currents

CN1C(=O)CN=C(c2ccccc2)c2cc(Cl)ccc21 [diazepam]
Effect on inhibitory currents in α1 subunit containing GABAA receptors [3]: increase both the amplitude and time course of inhibitory currents

Cc1ccc(-c2nc3ccc(C)cn3c2CC(=O)N(C)C)cc1 [zolpidem]
Effect on inhibitory currents in α1 subunit containing GABAA receptors [3]: increase both the amplitude and time course of inhibitory currents
